Experiments:
[1] = Protein binding in human serum assessed as unbound fraction at 1 uM measured after 24 hrs by LC-MS/MS analysis; type: ADME, cell-free
[2] = Protein binding in mouse serum assessed as unbound fraction at 1 uM measured after 24 hrs by LC-MS/MS analysis; type: ADME, cell-free
[3] = AUC (infinity) in ICR mouse at 50 mg/kg, ip; type: ADME, organism-based; set-up: dose 50 mg/kg, route intraperitoneal, time infinity; conditions: in vivo
[4] = Initial plasma concentration in Sprague-Dawley rat at 1 mg/kg, iv; type: ADME, organism-based
[5] = Half life in Sprague-Dawley rat at 1 mg/kg, iv; type: ADME, organism-based; conditions: in vivo
[6] = AUC (infinity) in Sprague-Dawley rat at 1 mg/kg, iv; type: ADME, organism-based; set-up: dose 1 mg/kg, route intravenous, time infinity; conditions: in vivo
[7] = Total clearance in Sprague-Dawley rat at 1 mg/kg, iv; type: ADME, organism-based; conditions: in vivo
[8] = Volume of distribution at steady state in Sprague-Dawley rat at 1 mg/kg, iv; type: ADME, organism-based; conditions: in vivo, read-out: Vdss
[9] = Cmax in Sprague-Dawley rat at 3 mg/kg, po; type: ADME, organism-based; set-up: dose 3 mg/kg, route oral; conditions: in vivo
[10] = Tmax in Sprague-Dawley rat at 3 mg/kg, po; type: ADME, organism-based; conditions: in vivo
[11] = AUC (infinity) in Sprague-Dawley rat at 3 mg/kg, po; type: ADME, organism-based; set-up: dose 3 mg/kg, time infinity, route oral; conditions: in vivo
[12] = Oral bioavailability in Sprague-Dawley rat at 3 mg/kg; type: ADME, organism-based; conditions: in vivo
[13] = biological target: Poly [ADP-ribose] polymerase 2 (Homo sapiens, UniProt Q9UGN5); assay: Inhibition of human recombinant N-terminal GST-tagged PARP2 (2 to 583 residues) expressed in baculovirus infected Sf9 cells assessed as reduction in auto-PARylation using histone as substrate measured after 45 mins in presence of biotinylated-NAD+ by ELISA
Poly [ADP-ribose] polymerase 2, sequence (Q9UGN5 whole entry, the tested form may be a part): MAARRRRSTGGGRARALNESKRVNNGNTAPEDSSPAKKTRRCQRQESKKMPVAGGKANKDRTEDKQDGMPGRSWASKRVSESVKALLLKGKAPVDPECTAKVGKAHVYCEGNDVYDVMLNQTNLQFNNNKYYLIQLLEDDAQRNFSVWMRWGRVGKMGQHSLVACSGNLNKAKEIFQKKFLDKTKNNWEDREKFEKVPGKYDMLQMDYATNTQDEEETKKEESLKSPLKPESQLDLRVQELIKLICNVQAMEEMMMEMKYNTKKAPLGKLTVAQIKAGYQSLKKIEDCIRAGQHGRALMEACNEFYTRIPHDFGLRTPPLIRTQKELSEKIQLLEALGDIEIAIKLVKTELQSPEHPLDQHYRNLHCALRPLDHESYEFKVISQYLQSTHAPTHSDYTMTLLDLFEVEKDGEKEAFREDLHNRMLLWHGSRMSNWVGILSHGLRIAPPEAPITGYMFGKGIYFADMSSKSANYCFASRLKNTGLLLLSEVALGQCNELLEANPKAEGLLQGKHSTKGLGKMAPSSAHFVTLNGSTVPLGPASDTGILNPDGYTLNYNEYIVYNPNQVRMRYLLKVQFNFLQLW

[14] = biological target: T1, Protein mono-ADP-ribosyltransferase PARP10 (Homo sapiens, UniProt Q53GL7); assay: Inhibition of human recombinant N-terminal TEV-cleavgae site-fused-FLAG/Polyhis-tagged PARP10 […] expressed in Escherichia coli assessed as reduction in auto-PARylation using histone as substrate measured after 45 mins in presence of biotinylated-NAD+ by ELISA
T1 sequence (Q53GL7 whole entry): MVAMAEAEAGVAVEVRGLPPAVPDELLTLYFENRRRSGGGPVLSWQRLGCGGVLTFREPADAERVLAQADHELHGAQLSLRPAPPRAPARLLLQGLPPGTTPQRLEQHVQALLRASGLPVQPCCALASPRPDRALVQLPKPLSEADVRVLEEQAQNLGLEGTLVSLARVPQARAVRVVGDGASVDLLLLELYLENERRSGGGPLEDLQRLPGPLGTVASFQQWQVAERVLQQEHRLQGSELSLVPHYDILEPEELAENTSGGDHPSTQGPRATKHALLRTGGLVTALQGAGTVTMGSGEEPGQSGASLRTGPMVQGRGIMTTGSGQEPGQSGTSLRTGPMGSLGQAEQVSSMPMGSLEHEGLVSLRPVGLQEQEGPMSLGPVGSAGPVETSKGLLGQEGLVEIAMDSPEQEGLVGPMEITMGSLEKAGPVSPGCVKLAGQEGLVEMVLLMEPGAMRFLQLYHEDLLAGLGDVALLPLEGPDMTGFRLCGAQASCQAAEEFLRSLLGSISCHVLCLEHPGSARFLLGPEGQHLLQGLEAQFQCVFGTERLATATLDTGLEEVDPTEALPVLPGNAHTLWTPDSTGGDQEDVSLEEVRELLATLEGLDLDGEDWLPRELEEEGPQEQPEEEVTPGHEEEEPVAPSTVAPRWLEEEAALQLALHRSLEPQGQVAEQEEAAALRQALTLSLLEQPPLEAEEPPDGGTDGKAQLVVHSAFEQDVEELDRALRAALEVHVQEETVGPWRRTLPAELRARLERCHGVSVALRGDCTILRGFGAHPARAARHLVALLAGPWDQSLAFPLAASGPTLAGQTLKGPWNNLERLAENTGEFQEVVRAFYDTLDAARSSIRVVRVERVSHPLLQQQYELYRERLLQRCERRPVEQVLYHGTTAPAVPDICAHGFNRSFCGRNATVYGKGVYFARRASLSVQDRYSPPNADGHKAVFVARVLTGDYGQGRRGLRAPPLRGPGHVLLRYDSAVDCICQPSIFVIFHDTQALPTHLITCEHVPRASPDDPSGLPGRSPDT

[15] = biological target: Androgen receptor (Homo sapiens) (UniProt P10275); assay: Displacement of [3H]Methyltrienolone from human LNCAP cells-derived androgen receptor at 10 uM measured after 20 hrs by scintillation counting method relative to control; type: cell-based
Androgen receptor (Homo sapiens), sequence (P10275 whole entry): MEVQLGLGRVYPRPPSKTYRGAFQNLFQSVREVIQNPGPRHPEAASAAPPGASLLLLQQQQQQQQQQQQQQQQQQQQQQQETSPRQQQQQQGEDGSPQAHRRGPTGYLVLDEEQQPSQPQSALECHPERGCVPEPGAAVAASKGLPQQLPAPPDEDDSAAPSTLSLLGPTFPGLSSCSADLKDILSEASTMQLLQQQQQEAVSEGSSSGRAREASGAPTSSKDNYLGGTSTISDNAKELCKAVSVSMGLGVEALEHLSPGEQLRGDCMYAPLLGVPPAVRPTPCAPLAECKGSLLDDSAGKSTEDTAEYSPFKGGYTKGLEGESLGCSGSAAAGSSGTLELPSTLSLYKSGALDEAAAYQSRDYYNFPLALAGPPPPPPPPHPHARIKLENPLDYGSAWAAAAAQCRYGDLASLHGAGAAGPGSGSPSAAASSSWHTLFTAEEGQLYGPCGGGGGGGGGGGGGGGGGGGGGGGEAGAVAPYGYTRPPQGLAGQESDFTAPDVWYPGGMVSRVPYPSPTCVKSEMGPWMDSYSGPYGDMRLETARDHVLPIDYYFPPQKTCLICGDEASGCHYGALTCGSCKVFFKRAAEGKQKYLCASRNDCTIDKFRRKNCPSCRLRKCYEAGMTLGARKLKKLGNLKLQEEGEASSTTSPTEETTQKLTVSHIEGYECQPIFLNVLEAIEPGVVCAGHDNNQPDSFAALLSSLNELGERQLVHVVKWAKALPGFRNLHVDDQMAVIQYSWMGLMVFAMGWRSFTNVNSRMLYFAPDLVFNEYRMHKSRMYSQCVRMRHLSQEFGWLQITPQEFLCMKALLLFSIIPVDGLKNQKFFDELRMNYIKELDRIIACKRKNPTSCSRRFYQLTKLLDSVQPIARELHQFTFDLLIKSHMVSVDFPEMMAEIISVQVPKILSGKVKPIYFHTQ

[16] = biological target: Delta-type opioid receptor (Homo sapiens) (UniProt P41143); assay: Displacement of [3H]naltrindole from full-length recombinant human DOR expressed in HEK293 cells at 10 uM measured after 60 mins by scintillation counting method relative to control; type: cell-based
Delta-type opioid receptor (Homo sapiens), sequence (P41143 whole entry): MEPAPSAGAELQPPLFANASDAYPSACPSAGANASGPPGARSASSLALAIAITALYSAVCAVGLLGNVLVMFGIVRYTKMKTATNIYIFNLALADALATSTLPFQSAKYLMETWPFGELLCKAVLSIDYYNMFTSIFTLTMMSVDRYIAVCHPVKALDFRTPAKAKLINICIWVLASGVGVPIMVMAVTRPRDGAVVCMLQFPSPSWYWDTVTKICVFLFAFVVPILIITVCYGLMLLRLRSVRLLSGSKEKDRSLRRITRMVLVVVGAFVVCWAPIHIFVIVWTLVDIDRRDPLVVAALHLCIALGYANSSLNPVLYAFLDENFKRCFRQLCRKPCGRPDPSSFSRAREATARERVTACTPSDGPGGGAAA

[17] = biological target: Mu-type opioid receptor (Homo sapiens) (UniProt P35372); assay: Displacement of [3H]diprenorphine from full-length recombinant human MOR expressed in CHOK1 cells at 10 uM measured after 60 mins by scintillation counting method relative to control; type: cell-based
Mu-type opioid receptor (Homo sapiens), sequence (P35372 whole entry): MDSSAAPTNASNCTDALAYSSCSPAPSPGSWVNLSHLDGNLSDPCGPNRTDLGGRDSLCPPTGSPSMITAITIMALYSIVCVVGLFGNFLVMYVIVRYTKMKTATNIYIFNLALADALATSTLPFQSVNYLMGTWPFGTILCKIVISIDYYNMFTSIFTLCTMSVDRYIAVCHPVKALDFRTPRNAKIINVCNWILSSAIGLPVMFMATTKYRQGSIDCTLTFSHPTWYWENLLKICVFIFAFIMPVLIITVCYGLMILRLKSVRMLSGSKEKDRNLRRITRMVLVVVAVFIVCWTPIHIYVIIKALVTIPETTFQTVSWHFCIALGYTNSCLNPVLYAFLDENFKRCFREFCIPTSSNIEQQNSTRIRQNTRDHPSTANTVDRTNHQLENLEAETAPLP

[18] = biological target: Sodium-dependent noradrenaline transporter (Homo sapiens) (UniProt P23975); assay: Displacement of [125I]RTI-55 from full-length recombinant human NET receptor expressed in MDCK cells at 10 uM measured after 3 hrs by scintillation counting method relative to control; type: cell-based
Sodium-dependent noradrenaline transporter (Homo sapiens), sequence (P23975 whole entry): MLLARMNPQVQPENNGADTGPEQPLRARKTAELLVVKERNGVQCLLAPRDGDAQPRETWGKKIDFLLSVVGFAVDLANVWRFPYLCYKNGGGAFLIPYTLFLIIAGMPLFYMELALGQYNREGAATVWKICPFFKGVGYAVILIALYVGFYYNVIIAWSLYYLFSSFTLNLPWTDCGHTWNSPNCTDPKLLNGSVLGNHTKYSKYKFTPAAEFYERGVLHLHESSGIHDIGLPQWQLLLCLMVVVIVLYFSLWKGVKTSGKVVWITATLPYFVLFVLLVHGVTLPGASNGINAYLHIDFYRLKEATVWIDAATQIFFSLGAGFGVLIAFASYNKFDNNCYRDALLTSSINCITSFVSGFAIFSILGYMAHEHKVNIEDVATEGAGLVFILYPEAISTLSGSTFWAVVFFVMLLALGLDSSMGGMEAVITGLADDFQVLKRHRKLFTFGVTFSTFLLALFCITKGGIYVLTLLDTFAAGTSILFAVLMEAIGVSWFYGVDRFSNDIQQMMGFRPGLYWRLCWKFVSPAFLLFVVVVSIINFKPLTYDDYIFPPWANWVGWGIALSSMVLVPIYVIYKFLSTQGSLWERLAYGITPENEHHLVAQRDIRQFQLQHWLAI

[19] = biological target: Poly [ADP-ribose] polymerase 1 (Homo sapiens, UniProt P09874)
Poly [ADP-ribose] polymerase 1, sequence (P09874 whole entry): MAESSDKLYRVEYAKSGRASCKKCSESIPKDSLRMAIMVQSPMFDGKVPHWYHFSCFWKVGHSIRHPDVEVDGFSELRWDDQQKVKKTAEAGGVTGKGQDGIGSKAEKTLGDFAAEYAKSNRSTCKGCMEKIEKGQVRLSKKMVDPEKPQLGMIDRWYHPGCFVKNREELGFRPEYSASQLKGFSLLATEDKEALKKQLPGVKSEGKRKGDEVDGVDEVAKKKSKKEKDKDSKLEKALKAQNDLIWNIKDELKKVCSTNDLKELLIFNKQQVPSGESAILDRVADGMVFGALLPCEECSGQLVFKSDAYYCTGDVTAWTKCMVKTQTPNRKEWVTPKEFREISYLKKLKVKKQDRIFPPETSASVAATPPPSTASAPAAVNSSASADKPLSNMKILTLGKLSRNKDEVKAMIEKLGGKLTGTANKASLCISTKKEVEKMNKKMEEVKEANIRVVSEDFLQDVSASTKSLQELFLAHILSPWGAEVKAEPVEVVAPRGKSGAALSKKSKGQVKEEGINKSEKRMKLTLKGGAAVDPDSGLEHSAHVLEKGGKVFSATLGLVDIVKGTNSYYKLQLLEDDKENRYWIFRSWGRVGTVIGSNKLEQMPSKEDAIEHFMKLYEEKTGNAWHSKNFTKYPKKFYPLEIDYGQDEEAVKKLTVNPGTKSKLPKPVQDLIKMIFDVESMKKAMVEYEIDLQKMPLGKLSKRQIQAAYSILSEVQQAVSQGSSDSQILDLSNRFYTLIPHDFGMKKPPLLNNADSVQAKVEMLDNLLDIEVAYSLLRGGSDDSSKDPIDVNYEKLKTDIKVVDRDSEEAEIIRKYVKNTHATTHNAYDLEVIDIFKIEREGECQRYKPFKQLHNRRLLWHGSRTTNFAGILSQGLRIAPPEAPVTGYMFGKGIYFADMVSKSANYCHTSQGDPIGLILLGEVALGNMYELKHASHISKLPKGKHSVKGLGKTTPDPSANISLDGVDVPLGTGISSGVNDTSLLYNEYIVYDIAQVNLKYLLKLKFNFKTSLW
Description: Inhibition of recombinant human PARP1 expressed in Escherichia coli assessed as reduction in auto-PARylation using histone as substrate measured after 45 mins in presence of biotinylated-NAD+ by ELISA

COLO 320DM = assay: cells; conditions: Homo sapiens, 96 h
Description: Antiproliferative activity against human COLO320DM cells assessed as inhibition of cell growth measured after 4 days by CellTiter-Glo assay

in vitro [20] = conditions: human, liver microsomes
Description: Stability in human liver microsomes assessed as parent compound remaining at 1 uM measured after 30 mins in presence of NADPH by LC-MS/MS analysis

in vitro [21] = conditions: mouse, liver microsomes
Description: Stability in mouse liver microsomes assessed as parent compound remaining at 1 uM measured after 30 mins in presence of NADPH by LC-MS/MS analysis

Row | SMILES | fraction unbound at 24 h, 1 µM [1] | fraction unbound at 24 h, 1 µM [2] | C0 [4] [nM] | half-life [5] [h] | AUC(0-inf) [6] [µM·h] | clearance [7] [mL/min/kg] | Vd [8] [L/kg] | Cmax [9] [nM] | Tmax [10] [h] | AUC(0-inf) [11] [µM·h] | bioavailability [12] [%] | IC50 [13] [µM] | IC50 [14] [µM] | IC50 [19] [µM] | GI50 (COLO 320DM) [µM] | remaining at 0.5 h, 1 µM (in vitro [20]) [%] | remaining at 0.5 h, 1 µM (in vitro [21]) [%] | other results
1 | O=c1[nH]c(N2CCC3(CC2)CN(CCO)c2cc(F)cc(F)c23)nc2c1CCCC2 | 0.004 | 0.015 | 9840 | 3.5 | 4.42 | 9 | 0.59 | 2280 | 0.25 | 7.92 | 59.8 | 2.72 | 19.8 | 20 to 100 | 1.6 | 5.9 | 18.3 | AUC(0-inf) [3]: 555 µM·h; inhibition [15]: > 20%; inhibition [16]: > 20%; inhibition [17]: > 20%; inhibition [18]: > 20%
2 | COc1ccccc1N1CCN(c2nc3c(c(=O)[nH]2)CCCC3)CC1 | 0.043 | 0.029 | 1000 | 13 | 0.72 | 68 | 58.9 | 120 | 0.5 | 1.27 | 59.7 | 2.23 | 10.2 | 20 to 100 | 3.2 | 84.1 | 0 | –

— ChEMBL document CHEMBL4387706, “Discovery of Novel Spiroindoline Derivatives as Selective Tankyrase Inhibitors” (J Med Chem, 2019)
